PubChem BioAssay (NCI)
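These data come from cells grown in 96-well plates and exposed to compound for 48 hours at five concentrations. At the TGI there is no net growth.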

Experiments:
Test in all cases: NCI-60 cell line screen, 48 h
[1] = tested on: HT29 colon
[2] = tested on: SK-MEL-28 melanoma
[3] = tested on: 786-0 renal
[4] = tested on: SNB-19 CNS
[5] = tested on: HL-60(TB) leukemia
[6] = tested on: BT-549 breast
[7] = tested on: HOP-62 NSCLC
[8] = tested on: KM12 colon
[9] = tested on: COLO 205 colon
[10] = tested on: SW-620 colon
[11] = tested on: NCI/ADR-RES ovarian
[12] = tested on: NCI-H522 lung
[13] = tested on: SR leukemia
[14] = tested on: K-562 leukemia
[15] = tested on: CCRF-CEM leukemia
[16] = tested on: SK-MEL-5 melanoma
[17] = tested on: MDA-N
[18] = tested on: ACHN renal
[19] = tested on: T-47D breast
[20] = tested on: U251 CNS
[21] = tested on: DU-145 prostate
[22] = tested on: SF-295 CNS
[23] = tested on: CAKI-1 renal
[24] = tested on: NCI-H226 lung
[25] = tested on: HCT-15 colon
[26] = tested on: HS 578T breast
[27] = tested on: OVCAR-3 ovarian
[28] = tested on: OVCAR-4 ovarian
[29] = tested on: SN12C renal
[30] = tested on: UO-31 renal
[31] = tested on: TK-10 renal
[32] = tested on: NCI-H460 lung
[33] = tested on: HCT-116 colon
[34] = tested on: SK-MEL-2 melanoma
[35] = tested on: UACC-257 melanoma
[36] = tested on: IGROV1 ovarian
[37] = tested on: EKVX NSCLC
[38] = tested on: HCC-2998 colon
[39] = tested on: PC-3 prostate
[40] = tested on: A549 NSCLC
[41] = tested on: MOLT-4 leukemia
[42] = tested on: RXF 393 renal
[43] = tested on: NCI-H23 lung
[44] = tested on: MCF7 breast
[45] = tested on: OVCAR-5 ovarian
[46] = tested on: LOX IMVI melanoma
[47] = tested on: MALME-3M melanoma
[48] = tested on: MDA-MB-435
[49] = tested on: SF-539 CNS
[50] = tested on: UACC-62 melanoma
[51] = tested on: SF-268 CNS
[52] = tested on: M14 melanoma
[53] = tested on: OVCAR-8 ovarian
[54] = tested on: HOP-92 NSCLC
[55] = tested on: SK-OV-3 ovarian
[56] = tested on: MDA-MB-231 breast
[57] = tested on: RPMI-8226 leukemia
[58] = tested on: A498 renal

Work on `COCOc1cc(OC)ccc1C/C=N/O` yielded a TGI [1] of over 100 µM, a TGI [2] of over 100 µM and a TGI [3] of over 100 µM. For the same molecule, the TGI [4] was over 100 µM, the TGI [5] was over 100 µM and the TGI [6] was over 100 µM. It also gave a TGI [7] of over 100 µM, a TGI [8] of over 100 µM and a TGI [9] of over 100 µM. The TGI [10] was over 100 µM, the TGI [11] was over 100 µM and the TGI [12] was over 100 µM. For the same molecule, the TGI [13] was over 100 µM, the TGI [14] was over 100 µM and the TGI [15] was over 100 µM. For the same molecule, the TGI [16] was over 100 µM, the TGI [17] was over 100 µM and the TGI [18] was over 100 µM. The TGI [19] was over 100 µM, the TGI [20] was over 100 µM and the TGI [21] was over 100 µM. For the same molecule, the TGI [22] was over 100 µM, the TGI [23] was over 100 µM and the TGI [24] was over 100 µM. The TGI [25] was over 100 µM, the TGI [26] was over 100 µM and the TGI [27] was over 100 µM. It also gave a TGI [28] of over 100 µM, a TGI [29] of over 100 µM and a TGI [30] of over 100 µM. For the same molecule, the TGI [31] was over 100 µM, the TGI [32] was over 100 µM and the TGI [33] was over 100 µM. The TGI [34] was over 100 µM, the TGI [35] was over 100 µM and the TGI [36] was over 100 µM. It also gave a TGI [37] of over 100 µM, a TGI [38] of over 100 µM and a TGI [39] of over 100 µM. For the same molecule, the TGI [40] was over 100 µM, the TGI [41] was over 100 µM and the TGI [42] was over 100 µM. For the same molecule, the TGI [43] was over 100 µM, the TGI [44] was over 100 µM and the TGI [45] was over 100 µM. For the same molecule, the TGI [46] was over 100 µM, the TGI [47] was over 100 µM and the TGI [48] was over 100 µM. It also gave a TGI [49] of over 100 µM, a TGI [50] of over 100 µM and a TGI [51] of over 100 µM. It also gave a TGI [52] of over 100 µM, a TGI [53] of over 100 µM and a TGI [54] of over 100 µM. The TGI [55] was over 100 µM and the TGI [56] was over 100 µM.

`O=C(O)CC1OCC=C2C[N+]3([O-])CCC45c6ccccc6NC4C1C2CC53` (centres undefined) showed a TGI [1] of over 100 µM, a TGI [2] of over 100 µM and a TGI [3] of over 100 µM. The TGI [4] was over 100 µM, the TGI [5] was over 100 µM and the TGI [6] was over 100 µM. The TGI [7] was over 100 µM, the TGI [8] was over 100 µM and the TGI [9] was over 100 µM. The TGI [10] was over 100 µM, the TGI [11] was over 100 µM and the TGI [12] was over 100 µM. For the same molecule, the TGI [13] was over 100 µM, the TGI [14] was over 100 µM and the TGI [16] was over 100 µM. The TGI [17] was over 100 µM, the TGI [18] was over 100 µM and the TGI [19] was over 100 µM. For the same molecule, the TGI [20] was over 100 µM, the TGI [21] was over 100 µM and the TGI [22] was over 100 µM. The TGI [23] was over 100 µM, the TGI [24] was over 100 µM and the TGI [25] was over 100 µM. For the same molecule, the TGI [26] was over 100 µM, the TGI [27] was over 100 µM and the TGI [28] was over 100 µM. It also gave a TGI [29] of over 100 µM, a TGI [30] of over 100 µM and a TGI [31] of over 100 µM. The TGI [57] was over 100 µM, the TGI [32] was over 100 µM and the TGI [33] was over 100 µM. For the same molecule, the TGI [34] was 34.2 µM, the TGI [35] was over 100 µM and the TGI [36] was over 100 µM. The TGI [37] was over 100 µM, the TGI [39] was over 100 µM and the TGI [40] was over 100 µM. It also gave a TGI [41] of over 100 µM, a TGI [42] of over 100 µM and a TGI [43] of over 100 µM. It also gave a TGI [44] of over 100 µM, a TGI [45] of over 100 µM and a TGI [46] of over 100 µM. The TGI [47] was over 100 µM, the TGI [48] was over 100 µM and the TGI [49] was over 100 µM. For the same molecule, the TGI [58] was over 100 µM, the TGI [50] was over 100 µM and the TGI [51] was over 100 µM. For the same molecule, the TGI [52] was over 100 µM, the TGI [53] was over 100 µM and the TGI [54] was over 100 µM. For the same molecule, the TGI [55] was over 100 µM and the TGI [56] was over 100 µM.

With `CCCCn1c(C)c(C(=O)CC)c(C(=O)NCCN2CCN(c3ccccc3Cl)CC2)c1C` the TGI [1] was 29.2 µM, the TGI [2] was 48.2 µM and the TGI [3] was 32.5 µM. The TGI [4] was 31.3 µM, the TGI [5] was 49.5 µM and the TGI [6] was 30.3 µM. It also gave a TGI [7] of 40.6 µM, a TGI [8] of 37.5 µM and a TGI [9] of 28.4 µM. For the same molecule, the TGI [10] was over 100 µM, the TGI [11] was 34.3 µM and the TGI [12] was 33.3 µM. It also gave a TGI [13] of 60.1 µM, a TGI [14] of over 100 µM and a TGI [15] of over 100 µM. The TGI [16] was 28.7 µM, the TGI [17] was 31 µM and the TGI [18] was 30.2 µM. For the same molecule, the TGI [19] was 51.2 µM, the TGI [20] was 31.3 µM and the TGI [21] was 35.4 µM. For the same molecule, the TGI [22] was 34.6 µM, the TGI [23] was 32.3 µM and the TGI [24] was 37.8 µM. It also gave a TGI [25] of 31.6 µM, a TGI [26] of 58.1 µM and a TGI [27] of 48.1 µM. It also gave a TGI [28] of 34.6 µM, a TGI [29] of 30.9 µM and a TGI [30] of 27.1 µM. For the same molecule, the TGI [31] was 33.9 µM, the TGI [57] was 81.8 µM and the TGI [32] was 28.9 µM. It also gave a TGI [33] of 27.7 µM, a TGI [34] of 32.1 µM and a TGI [35] of 26.3 µM. The TGI [36] was 30.9 µM, the TGI [37] was 33.1 µM and the TGI [39] was 31.1 µM. The TGI [40] was 32.9 µM, the TGI [41] was 50.1 µM and the TGI [42] was 39.4 µM. The TGI [43] was 30.5 µM, the TGI [44] was 36.2 µM and the TGI [45] was 33.3 µM. For the same molecule, the TGI [46] was 35.6 µM, the TGI [47] was 34.4 µM and the TGI [48] was 36.4 µM. The TGI [49] was 34.9 µM, the TGI [58] was 32.3 µM and the TGI [50] was 29.9 µM. For the same molecule, the TGI [51] was 37.7 µM, the TGI [52] was 33.5 µM and the TGI [53] was 35.8 µM. For the same molecule, the TGI [54] was 27.7 µM, the TGI [55] was 35.7 µM and the TGI [56] was 33.8 µM.
